Consider 15 compounds from patent US12084453B2, “Bicyclic amines as CDK12 inhibitors” (Incyte Corporation, priority 2021, dated 2024).

SMILES strings stand for the structures. Some results are limits rather than exact numbers.

For the experiment, the target named is T1, CDK12 complexed with Cyclin K (Homo sapiens, UniProt Q9NYV4).
T1 construct: GST (N); host or cells: baculovirus expression system
The experiment is described as follows: CDK enzymatic assay (HTRF, LANCE Ultra kinase assay). Format: biochemical. The conditions noted are these: 60 minutes pre-incubation with compound; 1 mM ATP. As to the method: The following activity of the CDK enzymes in complex with their respective cyclins we assayed: CDK1 complexed with Cyclin B1; CDK2 complexed with Cyclin E1; CDK4 complexed with Cyclin D1; CDK6 complexed with Cyclin D1; CDK6 complexed with Cyclin D3; CDK9 complexed with Cyclin T1; CDK7 complexed with Cyclin H/MAT1; CDK2 complexed with Cyclin A2; CDK5 complexed with p35; CDK12 complexed with Cyclin K; CDK13 complexed with Cyclin K. These in vitro enzyme activity are assayed using homogeneous time-resolved energy transfer (HTRF), which measures phosphorylation of a peptide substrate. The LANCE® Ultra kinase assay (PerkinElmer) uses a ULight™-labeled EIF4E-binding protein 1 (THR37/46) peptide (DYSTTPGGTLFSTTPGTRI (SEQ ID NO: 1)) substrate and a Europium-labeled anti-phospho-4E-BP1 antibody (CDK2, CDK1, CDK4, CDK6, CDK9, CDK12, CDK13) or ULight™-labeled Myelin Basic Protein peptide (VTPRTPPP (SEQ ID NO: 2)) substrate and a Europium-labeled anti-phospho-MBP antibody (CDK7). Each CDK enzyme activity assays utilized human CDK co-expressed as N-terminal GST-tagged protein with its full length cyclin partner using a baculovirus expression system.
Enzyme was pre-incubated with compounds for 30 minutes (CDK1,2,4,6,9) or 60 minutes (CDK7, CDK12, CDK13) prior to addition of ATP and Ulight-peptide (1 mM and 50 nM final, respectively), in assay buffer containing 50 mM HEPES pH 7.5, 1 mM EGTA, 10 mM MgCl2, 2 mM DTT, 0.05 mg/mL BSA, and 0.01% Tween 20. The reaction was then incubated for 60-90 minutes at room temperature. The reactions were stopped by the addition of EDTA and Europium labeled antibody, for a final concentration of 15 mM and 1.0-1.5 nM, respectively. HTRF signals were read after 15-120 minutes. A ratio of fluorescence transferred to the labeled substrate (665 nm) relative to fluorescence of the Europium donor (620 nm) represents the extent of phosphorylation. Ratios for treated wells were normalized to DMSO only (100% activity) and no enzyme (0% activity) controls. Normalized data was analyzed using a three or four parameter dose response curve to determine IC50 for each compound and are shown in Table A. Control reference inhibitors were included on each plate.

T1 sequence (Q9NYV4 whole entry): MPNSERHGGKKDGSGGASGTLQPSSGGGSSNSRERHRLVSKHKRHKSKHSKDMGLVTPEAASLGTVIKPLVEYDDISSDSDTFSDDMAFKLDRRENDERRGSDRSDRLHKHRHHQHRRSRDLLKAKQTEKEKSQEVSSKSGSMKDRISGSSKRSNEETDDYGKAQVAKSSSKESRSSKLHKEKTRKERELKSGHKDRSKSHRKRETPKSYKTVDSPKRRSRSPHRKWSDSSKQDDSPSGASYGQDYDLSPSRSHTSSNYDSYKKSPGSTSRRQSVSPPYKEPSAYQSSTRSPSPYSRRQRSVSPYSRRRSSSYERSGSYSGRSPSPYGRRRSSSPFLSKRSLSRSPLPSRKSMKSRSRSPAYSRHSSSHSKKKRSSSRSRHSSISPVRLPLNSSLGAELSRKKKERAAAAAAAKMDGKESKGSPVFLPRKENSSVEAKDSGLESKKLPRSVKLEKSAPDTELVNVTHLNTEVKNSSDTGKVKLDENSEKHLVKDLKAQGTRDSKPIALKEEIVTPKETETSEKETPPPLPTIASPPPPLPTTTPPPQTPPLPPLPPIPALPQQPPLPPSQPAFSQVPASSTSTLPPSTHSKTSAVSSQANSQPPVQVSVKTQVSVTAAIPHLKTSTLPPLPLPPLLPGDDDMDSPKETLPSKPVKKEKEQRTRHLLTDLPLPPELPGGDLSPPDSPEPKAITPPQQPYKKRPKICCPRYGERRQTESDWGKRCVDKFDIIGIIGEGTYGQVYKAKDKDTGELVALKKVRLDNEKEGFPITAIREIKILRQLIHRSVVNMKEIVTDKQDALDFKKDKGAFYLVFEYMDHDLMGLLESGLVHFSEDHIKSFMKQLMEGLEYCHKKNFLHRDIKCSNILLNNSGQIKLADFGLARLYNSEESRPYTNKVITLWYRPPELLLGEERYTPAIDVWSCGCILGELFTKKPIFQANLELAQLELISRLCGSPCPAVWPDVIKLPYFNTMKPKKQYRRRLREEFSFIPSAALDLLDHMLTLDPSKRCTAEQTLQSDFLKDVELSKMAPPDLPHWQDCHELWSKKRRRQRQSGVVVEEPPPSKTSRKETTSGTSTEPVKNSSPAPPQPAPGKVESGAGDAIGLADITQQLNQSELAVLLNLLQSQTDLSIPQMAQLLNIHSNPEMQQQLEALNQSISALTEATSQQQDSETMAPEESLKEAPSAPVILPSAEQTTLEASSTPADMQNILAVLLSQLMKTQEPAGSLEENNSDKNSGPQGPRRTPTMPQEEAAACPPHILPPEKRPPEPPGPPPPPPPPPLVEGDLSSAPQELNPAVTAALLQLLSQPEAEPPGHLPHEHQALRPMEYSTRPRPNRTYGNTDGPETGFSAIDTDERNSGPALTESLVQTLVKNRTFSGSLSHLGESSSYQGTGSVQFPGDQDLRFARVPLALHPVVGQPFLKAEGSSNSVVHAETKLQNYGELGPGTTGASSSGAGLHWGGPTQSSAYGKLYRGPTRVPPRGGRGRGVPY
T1 sequence (O75909 whole entry partner): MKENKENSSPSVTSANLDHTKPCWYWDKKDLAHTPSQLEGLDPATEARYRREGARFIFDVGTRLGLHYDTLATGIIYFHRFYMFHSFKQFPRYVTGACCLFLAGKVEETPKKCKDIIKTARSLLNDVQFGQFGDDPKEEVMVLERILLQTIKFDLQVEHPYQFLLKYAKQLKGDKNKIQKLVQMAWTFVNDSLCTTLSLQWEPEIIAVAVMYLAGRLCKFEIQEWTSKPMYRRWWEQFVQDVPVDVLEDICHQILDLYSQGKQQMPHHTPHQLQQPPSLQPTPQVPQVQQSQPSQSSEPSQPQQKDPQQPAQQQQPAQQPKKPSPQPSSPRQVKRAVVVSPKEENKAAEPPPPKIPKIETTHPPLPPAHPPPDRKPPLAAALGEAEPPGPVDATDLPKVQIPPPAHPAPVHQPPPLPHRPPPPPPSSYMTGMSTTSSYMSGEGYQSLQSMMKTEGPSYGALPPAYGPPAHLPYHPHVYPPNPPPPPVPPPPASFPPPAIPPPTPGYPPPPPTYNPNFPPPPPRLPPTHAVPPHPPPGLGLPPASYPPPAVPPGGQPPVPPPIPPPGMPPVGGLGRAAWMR

`C=CC(=O)Nc1ccc(C(=O)N2CCCC(Nc3nc4ccc(-c5c[nH]nc5C)c(N5CCOCC5)n4n3)C2)cc1` (stereo not drawn) [Example 9, N-(4-(3-((6-(3-Methyl-1H-pyrazol-4-yl)-5-morpholino-[1,2,4]triazolo[1,5-a]pyridin-2-yl)amino)piperidine-1-carbonyl)phenyl)acrylamide]: the IC50 was above 500 nM. For `C=CC(=O)Nc1ccc(C(=O)N2CC[C@@H](Nc3nc4cc(C)c(-c5cn[nH]c5)cn4n3)C2)cc1` [Example 24, (R)-N-(4-(3-((7-Methyl-6-(1H-pyrazol-4-yl)-[1,2,4]triazolo[1,5-a]pyridin-2-yl)amino)pyrrolidine-1-carbonyl)phenyl)acrylamide], the IC50 lay within 50 to 500 nM.

Consider `C=CC(=O)Nc1ccc2c(c1)C(=O)N([C@H]1CCC[C@@H](Nc3nc4ccc(-c5cn[nH]c5)c(N5CCCCC5)n4n3)C1)C2` [Example 21, N-(3-Oxo-2-((1S,3R)-3-((5-(piperidin-1-yl)-6-(1H-pyrazol-4-yl)-[1,2,4]triazolo[1,5-a]pyridin-2-yl)amino)cyclohexyl)isoindolin-5-yl)acrylamide], for which the IC50 was below 50 nM.

In the case of `C=CC(=O)Nc1ccc(C(=O)N2CC(Nc3nc4c(OC)c(-c5cn[nH]c5)ncn4n3)C2)cc1` [Example 3, N-(4-(3-((8-Methoxy-7-(1H-pyrazol-4-yl)-[1,2,4]triazolo[1,5-c]pyrimidin-2-yl)amino)azetidine-1-carbonyl)phenyl)acrylamide], the IC50 was below 50 nM.

Take `C=CC(=O)Nc1ccc(C(=O)N2CC[C@@H](Nc3nc4ccc(-c5cnco5)cn4n3)C2)cc1` [Example 20, (R)-N-(4-(3-((6-(Oxazol-5-yl)-[1,2,4]triazolo[1,5-a]pyridin-2-yl)amino)pyrrolidine-1-carbonyl)phenyl)acrylamide]: the IC50 was below 50 nM. Turning to `C=C(F)C(=O)Nc1ccc(C(=O)N2CC[C@@H](Nc3nc4ccc(-c5cn[nH]c5)c(C(C)C)n4n3)C2)cc1` [Example 26, (R)-2-Fluoro-N-(4-(3-((5-isopropyl-6-(1H-pyrazol-4-yl)-[1,2,4]triazolo[1,5-a]pyridin-2-yl)amino)pyrrolidine-1-carbonyl)phenyl)acrylamide], the IC50 was below 50 nM. Next, `C=CC(=O)N(C)c1ccc(C(=O)N2CC[C@@H](Nc3nc4ccc(-c5cn[nH]c5)c(C(C)C)n4n3)C2)cc1` [Example 25, (R)-N-(4-(3-((5-Isopropyl-6-(1H-pyrazol-4-yl)-[1,2,4]triazolo[1,5-a]pyridin-2-yl)amino)pyrrolidine-1-carbonyl)phenyl)-N-methylacrylamide]: below 50 nM.

Regarding `C=CC(=O)Nc1ccc(C(=O)N2CCC[C@@H](Nc3nc4cnc(-c5cn[nH]c5)c(OC5CC(F)(F)C5)n4n3)C2)cc1` [Example 10, (R)-N-(4-(3-((5-(3,3-Difluorocyclobutoxy)-6-(1H-pyrazol-4-yl)-[1,2,4]triazolo[1,5-a]pyrazin-2-yl)amino)piperidine-1-carbonyl)phenyl)acrylamide], the IC50 is below 50 nM.

With `C=CC(=O)Nc1ccc(C(=O)N2CC[C@@H](Nc3nc4ccc(-c5cn[nH]c5)c(C(C)C)n4n3)C2)cc1` [Example 18, (R)-N-(4-(3-((5-Isopropyl-6-(1H-pyrazol-4-yl)-[1,2,4]triazolo[1,5-a]pyridin-2-yl)amino)pyrrolidine-1-carbonyl)phenyl)acrylamide], the IC50 was below 50 nM. For the compound `C=CC(=O)Nc1ccc(C(=O)N2CCC[C@@H](Nc3nc4ccc(-c5cn[nH]c5)c(N5CCC(F)(F)CC5)n4n3)C2)cc1` [Example 13, (R)-N-(4-(3-((5-(4,4-Difluoropiperidin-1-yl)-6-(1H-pyrazol-4-yl)-[1,2,4]triazolo[1,5-a]pyridin-2-yl)amino)piperidine-1-carbonyl)phenyl)acrylamide], the IC50 was in the range of 50 to 500 nM.

Regarding `C=CC(=O)Nc1ccc(C(=O)N2CC[C@@H](Nc3nc4ccc(-c5cn[nH]c5)c(C#N)n4n3)C2)cc1` [Example 17, (R)-N-(4-(3-((5-Cyano-6-(1H-pyrazol-4-yl)-[1,2,4]triazolo[1,5-a]pyridin-2-yl)amino)pyrrolidine-1-carbonyl)phenyl)acrylamide], the IC50 was below 50 nM.

As for `C=CC(=O)Nc1ccc(C(=O)N2CC[C@@H](Nc3nc4ccc(-c5cn[nH]c5)c(C)n4n3)C2)cc1` [Example 12, (R)-N-(4-(3-((5-Methyl-6-(1H-pyrazol-4-yl)-[1,2,4]triazolo[1,5-a]pyridin-2-yl)amino)pyrrolidine-1-carbonyl)phenyl)acrylamide], the IC50 is below 50 nM.

For the compound `C=CC(=O)Nc1ccc(C(=O)N2CCC[C@@H](Nc3nc4ccc(-c5cn[nH]c5)c(O[C@H]5CCOC5)n4n3)C2)cc1` [Example 14, N-(4-((R)-3-((6-(1H-Pyrazol-4-yl)-5-(((S)-tetrahydrofuran-3-yl)oxy)-[1,2,4]triazolo[1,5-a]pyridin-2-yl)amino)piperidine-1-carbonyl)phenyl)acrylamide], the IC50 is below 50 nM. `C=CC(=O)Nc1ccc2c(c1)C(=O)N([C@H]1CCC[C@@H](Nc3nc4ccc(-c5cn[nH]c5)c(C(F)(F)F)n4n3)C1)C2` [Example 34, N-(2-((1S,3R)-3-((6-(1H-pyrazol-4-yl)-5-(trifluoromethyl)-[1,2,4]triazolo[1,5-a]pyridin-2-yl)amino)cyclohexyl)-3-oxoisoindolin-5-yl)acrylamide]: the IC50 was below 50 nM. Next, `C=CC(=O)Nc1ccc2c(c1)nc(N1CCC[C@@H](Nc3nc4ccc(-c5cn[nH]c5)c(C(F)(F)F)n4n3)C1)n2C` [Example 36, (R)-N-(2-(3-((6-(1H-pyrazol-4-yl)-5-(trifluoromethyl)-[1,2,4]triazolo[1,5-a]pyridin-2-yl)amino)piperidin-1-yl)-1-methyl-1H-benzo[d]imidazol-5-yl)acrylamide]: below 50 nM.

One may read the IC50 as the midpoint of a concentration-inhibition curve.
